Test results: patent US6689773B2, “Uracil substituted phenyl sulfamoyl carboxamides” (BASF Aktiengesellschaft, priority 2000, dated 2004)

Assays:
Assay type in all cases: in vivo
[1] = system: CHEAL, Lambsquarters, Chenopodium album, L. Common; experiment: Preemergence herbicidal evaluation (Example 148); details: rating scale 0-9, two to four weeks after treatment
How it was run: (§1)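 Test compound was applied in aqueous acetone to freshly planted cups at an equivalent of about 0.125 to 0.250 kg/ha, before emergence. Ratings, taken after two to four weeks of greenhouse growth, were averaged where a compound was tested more than once.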

[2] = system: ABUTH, Velvetleaf, Abutilon theophrasti, Medic.; experiment: Preemergence herbicidal evaluation (Example 148); details: rating scale 0-9, two to four weeks after treatment
How it was run: as §1

[3] = system: ECHCG, Barnyardgrass, Echinochloa crusgalli, (L.)Beau; experiment: Preemergence herbicidal evaluation (Example 148); details: rating scale 0-9, two to four weeks after treatment
How it was run: as §1

[4] = system: AMBEL, Ragweed, Common, Ambrosia artemiisifolia, L.; experiment: Preemergence herbicidal evaluation (Example 148); details: rating scale 0-9, two to four weeks after treatment
How it was run: as §1

[5] = system: IPOHE, Morningglory, Ivyleaf, Ipomoea hederacea, (L)Jacq.; experiment: Preemergence herbicidal evaluation (Example 148); details: rating scale 0-9, two to four weeks after treatment
How it was run: as §1

[6] = system: GLXMA, Soybean, Glycine max, (L.) Merr.; experiment: Preemergence herbicidal evaluation (Example 148); details: rating scale 0-9, two to four weeks after treatment
How it was run: as §1

[7] = system: DIGSA, Crabgrass, (Hairy) L, Digitaria sanguinalis, (L)Scop; experiment: Preemergence herbicidal evaluation (Example 148); details: rating scale 0-9, two to four weeks after treatment
How it was run: as §1

[8] = system: XANST, Cocklebur, Xanthium strumariam; experiment: Preemergence herbicidal evaluation (Example 148); details: rating scale 0-9, two to four weeks after treatment
How it was run: as §1

[9] = system: SETVI, Green foxtail, Setaria viridis, (L.)Beau; experiment: Preemergence herbicidal evaluation (Example 148); details: rating scale 0-9, two to four weeks after treatment
How it was run: as §1

[10] = system: TRZAW, Winter wheat, Tritium Aestivum, L. (Winter); experiment: Preemergence herbicidal evaluation (Example 148); details: rating scale 0-9, two to four weeks after treatment
How it was run: as §1

[11] = system: ALOMY, Blackgrass, Alopecurus myosuroides; experiment: Preemergence herbicidal evaluation (Example 148); details: rating scale 0-9, two to four weeks after treatment
How it was run: as §1

[12] = system: ZEAMX, Field corn, Zea mays L.; experiment: Preemergence herbicidal evaluation (Example 148); details: rating scale 0-9, two to four weeks after treatment
How it was run: as §1

[13] = system: CHEAL, Lambsquarters, Chenopodium album, L. Common; experiment: Postemergence herbicidal evaluation (Example 147); details: rating scale 0-9, two to three weeks after treatment
How it was run: (§2)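 About two-week-old seedlings were sprayed postemergence at roughly 0.016–0.032 kg/ha in 80/20 acetone/water with 1.0% methylated seed oil. After two to three weeks in the greenhouse, injury was rated visually on a 0–9 scale against controls, and repeat tests were averaged.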

[14] = system: ABUTH, Velvetleaf, Abutilon theophrasti, Medic.; experiment: Postemergence herbicidal evaluation (Example 147); details: rating scale 0-9, two to three weeks after treatment
How it was run: as §2

[15] = system: ECHCG, Barnyardgrass, Echinochloa crusgalli, (L.)Beau; experiment: Postemergence herbicidal evaluation (Example 147); details: rating scale 0-9, two to three weeks after treatment
How it was run: as §2

[16] = system: AMBEL, Ragweed, Common, Ambrosia artemiisifolia, L.; experiment: Postemergence herbicidal evaluation (Example 147); details: rating scale 0-9, two to three weeks after treatment
How it was run: as §2

[17] = system: IPOHE, Morningglory, Ivyleaf, Ipomoea hederacea, (L)Jacq.; experiment: Postemergence herbicidal evaluation (Example 147); details: rating scale 0-9, two to three weeks after treatment
How it was run: as §2

[18] = system: GLXMA, Soybean, Glycine max, (L.) Merr.; experiment: Postemergence herbicidal evaluation (Example 147); details: rating scale 0-9, two to three weeks after treatment
How it was run: as §2

[19] = system: DIGSA, Crabgrass, (Hairy) L, Digitaria sanguinalis, (L)Scop; experiment: Postemergence herbicidal evaluation (Example 147); details: rating scale 0-9, two to three weeks after treatment
How it was run: as §2

[20] = system: XANST, Cocklebur, Xanthium strumariam; experiment: Postemergence herbicidal evaluation (Example 147); details: rating scale 0-9, two to three weeks after treatment
How it was run: as §2

[21] = system: SETVI, Green foxtail, Setaria viridis, (L.)Beau; experiment: Postemergence herbicidal evaluation (Example 147); details: rating scale 0-9, two to three weeks after treatment
How it was run: as §2

[22] = system: TRZAW, Winter wheat, Tritium Aestivum, L. (Winter); experiment: Postemergence herbicidal evaluation (Example 147); details: rating scale 0-9, two to three weeks after treatment
How it was run: as §2

[23] = system: ALOMY, Blackgrass, Alopecurus myosuroides; experiment: Postemergence herbicidal evaluation (Example 147); details: rating scale 0-9, two to three weeks after treatment
How it was run: as §2

[24] = system: ZEAMX, Field corn, Zea mays L.; experiment: Postemergence herbicidal evaluation (Example 147); details: rating scale 0-9, two to three weeks after treatment
How it was run: as §2

CC(C)N(C)S(=O)(=O)NC(=O)c1cc(-n2c(=O)cc(C(F)(F)F)n(N)c2=O)c(F)cc1Cl [Example 76]
Preemergence herbicidal rating CHEAL ([1]; rate 0.125 kg/ha): 8.0
Preemergence herbicidal rating CHEAL ([1]; rate 0.25 kg/ha): 9.0
Preemergence herbicidal rating ABUTH ([2]; rate 0.125 kg/ha): 9.0
Preemergence herbicidal rating ABUTH ([2]; rate 0.25 kg/ha): 9.0
Preemergence herbicidal rating ECHCG ([3]; rate 0.125 kg/ha): 1.0
Preemergence herbicidal rating ECHCG ([3]; rate 0.25 kg/ha): 2.0
Preemergence herbicidal rating AMBEL ([4]; rate 0.125 kg/ha): 8.0
Preemergence herbicidal rating AMBEL ([4]; rate 0.25 kg/ha): 9.0
Preemergence herbicidal rating IPOHE ([5]; rate 0.125 kg/ha): 5.0
Preemergence herbicidal rating IPOHE ([5]; rate 0.25 kg/ha): 9.0
Preemergence herbicidal rating GLXMA ([6]; rate 0.125 kg/ha): 1.0
Preemergence herbicidal rating GLXMA ([6]; rate 0.25 kg/ha): 3.0
Preemergence herbicidal rating DIGSA ([7]; rate 0.125 kg/ha): 2.0
Preemergence herbicidal rating DIGSA ([7]; rate 0.25 kg/ha): 3.0
Preemergence herbicidal rating XANST ([8]; rate 0.125 kg/ha): 3.0
Preemergence herbicidal rating XANST ([8]; rate 0.25 kg/ha): 5.0
Preemergence herbicidal rating SETVI ([9]; rate 0.125 kg/ha): 1.0
Preemergence herbicidal rating SETVI ([9]; rate 0.25 kg/ha): 2.0
Preemergence herbicidal rating TRZAW ([10]; rate 0.125 kg/ha): 0.0
Preemergence herbicidal rating TRZAW ([10]; rate 0.25 kg/ha): 1.0
Preemergence herbicidal rating ALMOY ([11]; rate 0.125 kg/ha): 0.0
Preemergence herbicidal rating ALMOY ([11]; rate 0.25 kg/ha): 2.0
Preemergence herbicidal rating ZEAMX ([12]; rate 0.125 kg/ha): 1.0
Preemergence herbicidal rating ZEAMX ([12]; rate 0.25 kg/ha): 1.0
Postemergence herbicidal rating CHEAL ([13]; rate 0.016 kg/ha): 6.0
Postemergence herbicidal rating CHEAL ([13]; rate 0.032 kg/ha): 6.0
Postemergence herbicidal rating ABUTH ([14]; rate 0.016 kg/ha): 9.0
Postemergence herbicidal rating ABUTH ([14]; rate 0.032 kg/ha): 9.0
Postemergence herbicidal rating ECHCG ([15]; rate 0.016 kg/ha): 5.0
Postemergence herbicidal rating ECHCG ([15]; rate 0.032 kg/ha): 6.0
Postemergence herbicidal rating AMBEL ([16]; rate 0.016 kg/ha): 8.0
Postemergence herbicidal rating AMBEL ([16]; rate 0.032 kg/ha): 8.0
Postemergence herbicidal rating IPOHE ([17]; rate 0.016 kg/ha): 9.0
Postemergence herbicidal rating IPOHE ([17]; rate 0.032 kg/ha): 9.0
Postemergence herbicidal rating GLXMA ([18]; rate 0.016 kg/ha): 7.5
Postemergence herbicidal rating GLXMA ([18]; rate 0.032 kg/ha): 7.5
Postemergence herbicidal rating DIGSA ([19]; rate 0.016 kg/ha): 3.0
Postemergence herbicidal rating DIGSA ([19]; rate 0.032 kg/ha): 4.0
Postemergence herbicidal rating XANST ([20]; rate 0.016 kg/ha): 9.0
Postemergence herbicidal rating XANST ([20]; rate 0.032 kg/ha): 9.0
Postemergence herbicidal rating SETVI ([21]; rate 0.016 kg/ha): 5.0
Postemergence herbicidal rating SETVI ([21]; rate 0.032 kg/ha): 6.0
Postemergence herbicidal rating TRZAW ([22]; rate 0.016 kg/ha): 5.0
Postemergence herbicidal rating TRZAW ([22]; rate 0.032 kg/ha): 6.0
Postemergence herbicidal rating ALMOY ([23]; rate 0.016 kg/ha): 1.0
Postemergence herbicidal rating ALMOY ([23]; rate 0.032 kg/ha): 1.0
Postemergence herbicidal rating ZEAMX ([24]; rate 0.016 kg/ha): 5.5
Postemergence herbicidal rating ZEAMX ([24]; rate 0.032 kg/ha): 6.5

Cn1c(C(F)(F)F)cc(=O)n(-c2cc(C(=O)NS(=O)(=O)NCc3cccs3)c(Cl)cc2F)c1=O [Example 77]
Preemergence herbicidal rating CHEAL ([1]; rate 0.125 kg/ha): 9.0
Preemergence herbicidal rating CHEAL ([1]; rate 0.25 kg/ha): 9.0
Preemergence herbicidal rating ABUTH ([2]; rate 0.125 kg/ha): 9.0
Preemergence herbicidal rating ABUTH ([2]; rate 0.25 kg/ha): 9.0
Preemergence herbicidal rating ECHCG ([3]; rate 0.125 kg/ha): 2.0
Preemergence herbicidal rating ECHCG ([3]; rate 0.25 kg/ha): 3.0
Preemergence herbicidal rating AMBEL ([4]; rate 0.125 kg/ha): 9.0
Preemergence herbicidal rating AMBEL ([4]; rate 0.25 kg/ha): 9.0
Preemergence herbicidal rating IPOHE ([5]; rate 0.125 kg/ha): 7.0
Preemergence herbicidal rating IPOHE ([5]; rate 0.25 kg/ha): 9.0
Preemergence herbicidal rating GLXMA ([6]; rate 0.125 kg/ha): 1.0
Preemergence herbicidal rating DIGSA ([7]; rate 0.125 kg/ha): 2.0
Preemergence herbicidal rating DIGSA ([7]; rate 0.25 kg/ha): 4.0
Preemergence herbicidal rating XANST ([8]; rate 0.125 kg/ha): 3.0
Preemergence herbicidal rating XANST ([8]; rate 0.25 kg/ha): 8.0
Preemergence herbicidal rating SETVI ([9]; rate 0.125 kg/ha): 2.0
Preemergence herbicidal rating SETVI ([9]; rate 0.25 kg/ha): 2.0
Preemergence herbicidal rating TRZAW ([10]; rate 0.125 kg/ha): 0.0
Preemergence herbicidal rating TRZAW ([10]; rate 0.25 kg/ha): 0.0
Preemergence herbicidal rating ALMOY ([11]; rate 0.125 kg/ha): 0.0
Preemergence herbicidal rating ALMOY ([11]; rate 0.25 kg/ha): 0.0
Preemergence herbicidal rating ZEAMX ([12]; rate 0.125 kg/ha): 0.0
Preemergence herbicidal rating ZEAMX ([12]; rate 0.25 kg/ha): 1.0
Postemergence herbicidal rating CHEAL ([13]; rate 0.016 kg/ha): 6.0
Postemergence herbicidal rating CHEAL ([13]; rate 0.032 kg/ha): 7.0
Postemergence herbicidal rating ABUTH ([14]; rate 0.016 kg/ha): 9.0
Postemergence herbicidal rating ABUTH ([14]; rate 0.032 kg/ha): 9.0
Postemergence herbicidal rating ECHCG ([15]; rate 0.016 kg/ha): 4.0
Postemergence herbicidal rating ECHCG ([15]; rate 0.032 kg/ha): 6.0
Postemergence herbicidal rating AMBEL ([16]; rate 0.016 kg/ha): 8.0
Postemergence herbicidal rating AMBEL ([16]; rate 0.032 kg/ha): 8.0
Postemergence herbicidal rating IPOHE ([17]; rate 0.016 kg/ha): 9.0
Postemergence herbicidal rating IPOHE ([17]; rate 0.032 kg/ha): 9.0
Postemergence herbicidal rating GLXMA ([18]; rate 0.016 kg/ha): 7.5
Postemergence herbicidal rating GLXMA ([18]; rate 0.032 kg/ha): 7.5
Postemergence herbicidal rating DIGSA ([19]; rate 0.016 kg/ha): 4.0
Postemergence herbicidal rating DIGSA ([19]; rate 0.032 kg/ha): 4.0
Postemergence herbicidal rating XANST ([20]; rate 0.016 kg/ha): 9.0
Postemergence herbicidal rating XANST ([20]; rate 0.032 kg/ha): 9.0
Postemergence herbicidal rating SETVI ([21]; rate 0.016 kg/ha): 5.0
Postemergence herbicidal rating SETVI ([21]; rate 0.032 kg/ha): 6.0
Postemergence herbicidal rating TRZAW ([22]; rate 0.016 kg/ha): 4.5
Postemergence herbicidal rating TRZAW ([22]; rate 0.032 kg/ha): 5.0
Postemergence herbicidal rating ALMOY ([23]; rate 0.016 kg/ha): 1.0
Postemergence herbicidal rating ALMOY ([23]; rate 0.032 kg/ha): 1.0
Postemergence herbicidal rating ZEAMX ([24]; rate 0.016 kg/ha): 6.0
Postemergence herbicidal rating ZEAMX ([24]; rate 0.032 kg/ha): 6.5
